Assay results published in PubChem BioAssay AID2060889 (Molecular Pharmacology Branch, DTP, NCI, 2025).

Tested on: LG0567-F671-PDC complex spheroids viability
Test: Anticancer human tumor LG0567-F671-PDC patient-derived lung adenocarcinoma cell line growth inhibition [RAS]
Conditions: for viability, T/C: stronger effect = lower value
Source text: RAS pathway inhibitors in Combinations in Complex Spheroids
A high-throughput screen of multi-cell type tumor spheroids was designed to identify active combinations of RAS pathway inhibitors and targeted small molecules. Complex spheroids include a stromal component modeled by human endothelial cells (HUVEC) and fibroblasts modeled by human mesenchymal stem cells (MSCs). The concentration ranges selected for each drug and investigational agent were based upon clinically achievable concentrations if the clinical Cmax of the agent was known.
Compounds. The drugs and investigational agents: abemaciclib (NSC768073), cobimetinib (NSC768068), divarasib (GDC6063, NSC841802), docetaxel (NSC628503), GDC-1971 (RLY-1971, NSC841576), gemcitabine (NSC613327), inavolisib (NSC800729), ipatasertib (NSC767898), KB-0742 (NSC834161), MRTX-1133 (NSC836407), osimertinib (NSC779217), RMC-4630 (NSC839698), RMC-6236 (NSC851965), RMC-6291 (NSC852671), Ro-3306 (NSC812927), sapanisertib (NSC764658), SN-38 (NSC673596), staurosporine (NSC755774), SY5609 (NSC837396), and tovorafenib (DAY101, NSC766906), were obtained from the National Cancer Institute (NCI) Developmental Therapeutics Program Chemical Repository. The FDA-approved anticancer drug set is available from the NCI Developmental Therapeutics Program. […] The stock solutions were prepared in dimethyl sulfoxide (DMSO, Sigma-Aldrich, St. Louis, MO, cat. D2650) at 800-fold the tested concentration and stored at -70 degrees C prior to their use. All drugs and investigational agents were tested over a range starting from a high concentration at or near the clinical Cmax and decreasing in half-log increments. If the clinical Cmax for an agent had not been determined, the highest concentration tested was 10 microM.
Cell Culture. All cells were maintained in an incubator at 37 degrees C and 5% CO2 with 95% humidity. The PDC lines were cultured according to standard operating procedures established by the NCI PDMR. All PDCs were thawed and cultured in Matrigel-coated flasks prepared with a working solution of 1X Ham's F-12 nutrient mix, without supplementation (Invitrogen, Waltham, MA, cat. 11765054), 100 U/mL penicillin-streptomycin (Invitrogen, cat. 15140122), and 2.5% Matrigel (Corning Inc., Corning, NY, cat. 354248) for the first three passages. The 362531-283-R-J2-PDC and 782815-120-R-J1-PDC lines were cultured in 6C/Colon 1B media, which includes advanced DMEM/F-12 (Thermo Fisher Scientific, cat. 12634028), 10 mM HEPES (Thermo Fisher Scientific, cat. 15630080), 1X GlutaMAX supplement (Thermo Fisher Scientific, cat. 35050061), 0.1 mg/mL primocin (InvivoGen, San Diego, CA, cat. ant-pm-2), 10% defined fetal bovine serum, heat inactivated (HyClone Laboratories Inc., Logan, UT, cat. SH30070.03HI), 50% L-WRN conditioned media (ATCC, cat. CRL-3276), 1.25 mM N-Acetyl-L-cysteine (Sigma-Aldrich, cat. A9165), 10 mM nicotinamide (Sigma-Aldrich, cat. N0636), 1X B-27 supplement (Thermo Fisher Scientific, cat. 17504044), 1X N-2 supplement (Thermo Fisher Scientific, cat. 17502048), 50 ng/mL human EGF (Thermo Fisher Scientific, cat. PHG0311), and 10 microM Y-27632 dihydrochloride (Tocris Bioscience, cat. 1254). The K12877-001-R-J1-PDC line was cultured in 6I media, which includes all 6C/Colon 1B media plus 10 ng/mL human FGF-10 (PeproTech, cat. 100-26), 1 ng/mL human FGF-2 (PeproTech, cat. 100-18B), 1 µM prostaglandin E2 (Tocris Bioscience, cat. 2296), […] hydrocortisone (Sigma-Aldrich, cat. H4001), and […] bovine insulin (Sigma-Aldrich, cat. I6634). The K86415-001-R-J1-PDC line was cultured in 6D media, which includes all 6C/Colon 1B media components minus the L-WRN conditioned media. The 485176-168-R4-J1-PDC was cultured in PANC media, which includes all 6C/Colon 1B media plus 100 ng/mL human FGF-10 (PeproTech, cat. 100-26), 500 nM SB-431542 (Selleckchem, cat. S1067), and 10 nM gastrin (Tocris Bioscience, cat. 3006). […]
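Also: spheroids exposed to compound for seven days before readout.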
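For IC50 in this document: luminescence signal used as a proxy for viable cells.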

CC(C)NCC(C(=O)N1CCN(c2ncnc3c2C(C)CC3O)CC1)c1ccc(Cl)cc1 (stereo not drawn)
viability, T/C (compound 0.0316 µM): 101% [middle of 4 runs] | viability, T/C (compound 0.1 µM): 91.3% [middle of 4 runs] | viability, T/C (compound 0.316 µM): 77.4% [middle of 4 runs] | viability, T/C (compound 1 µM): 61.6% [middle of 4 runs] | viability, T/C (compound 10 µM): 63.5% [middle of 4 runs] | IC50 (curve of compound): > 10000 nM

NC1c2ccccc2OC12CCN(c1cnc3c(N4CCCc5ncccc54)n[nH]c3n1)CC2 (stereo not drawn) + C#Cc1c(F)ccc2cc(O)cc(-c3ncc4c(N5CC6CCC(C5)N6)nc(OCC56CCCN5CC(F)C6)nc4c3F)c12
IC50 (curve of first compound, second compound 0.0316 µM): < 31.6 nM | IC50 (curve of first compound, second compound 0.1 µM): < 31.6 nM | IC50 (curve of first compound, second compound 0.316 µM): < 31.6 nM | IC50 (curve of first compound, second compound 1 µM): < 31.6 nM | IC50 (curve of first compound, second compound 3.16 µM): < 31.6 nM | IC50 (curve of first compound, second compound 10 µM): < 31.6 nM | viability, T/C (second compound 0.0316 µM, first compound 0.0316 µM): 26.7% | viability, T/C (second compound 0.0316 µM, first compound 0.1 µM): 19.3% | viability, T/C (second compound 0.0316 µM, first compound 0.316 µM): 14.6% | viability, T/C (second compound 0.0316 µM, first compound 1 µM): 13.3% | viability, T/C (second compound 0.0316 µM, first compound 3.16 µM): 10.4% | viability, T/C (second compound 0.0316 µM, first compound 10 µM): 10.1% | viability, T/C (second compound 0.1 µM, first compound 0.0316 µM): 21% | viability, T/C (second compound 0.1 µM, first compound 0.1 µM): 14.3% | viability, T/C (second compound 0.1 µM, first compound 0.316 µM): 10.1% | viability, T/C (second compound 0.1 µM, first compound 1 µM): 8.88% | viability, T/C (second compound 0.1 µM, first compound 3.16 µM): 7.88% | viability, T/C (second compound 0.1 µM, first compound 10 µM): 6.09% | viability, T/C (second compound 0.316 µM, first compound 0.0316 µM): 13.9% | viability, T/C (second compound 0.316 µM, first compound 0.1 µM): 9.75% | viability, T/C (second compound 0.316 µM, first compound 0.316 µM): 8.65% | viability, T/C (second compound 0.316 µM, first compound 1 µM): 4.96% | viability, T/C (second compound 0.316 µM, first compound 3.16 µM): 3.75% | viability, T/C (second compound 0.316 µM, first compound 10 µM): 2.92% | viability, T/C (second compound 1 µM, first compound 0.0316 µM): 9.24% | viability, T/C (second compound 1 µM, first compound 0.1 µM): 6.71% | viability, T/C (second compound 1 µM, first compound 0.316 µM): 4% | viability, T/C (second compound 1 µM, first compound 1 µM): 3.17% | viability, T/C (second compound 1 µM, first compound 3.16 µM): 2.53% | viability, T/C (second compound 1 µM, first compound 10 µM): 2.43% | viability, T/C (second compound 3.16 µM, first compound 0.0316 µM): 6.2% | viability, T/C (second compound 3.16 µM, first compound 0.1 µM): 3.13% | viability, T/C (second compound 3.16 µM, first compound 0.316 µM): 2.43% | viability, T/C (second compound 3.16 µM, first compound 1 µM): 1.79% | viability, T/C (second compound 3.16 µM, first compound 3.16 µM): 2.13% | viability, T/C (second compound 3.16 µM, first compound 10 µM): 1.85% | viability, T/C (second compound 10 µM, first compound 0.0316 µM): 3.6% | viability, T/C (second compound 10 µM, first compound 0.1 µM): 2.14% | viability, T/C (second compound 10 µM, first compound 0.316 µM): 1.74% | viability, T/C (second compound 10 µM, first compound 1 µM): 1.65% | viability, T/C (second compound 10 µM, first compound 3.16 µM): 1.73% | viability, T/C (second compound 10 µM, first compound 10 µM): 1.28%
